Here are results for nine compounds from ChEMBL document CHEMBL5131375, “Recent Developments in the Use of Kinase Inhibitors for Management of Viral Infections” (J Med Chem, 2022).

As usually defined, the IC50 is the concentration at which inhibition is half-maximal. In general, EC50 refers to the concentration that produces a half-maximal response. One may read the IC90 as the concentration needed for an effect of 90%. By inhibition is commonly meant the change of the read-out against control, counted positive when it falls.

The target in series [1] is Receptor tyrosine-protein kinase erbB-2 (Homo sapiens, UniProt P04626).
Receptor tyrosine-protein kinase erbB-2, sequence (P04626 whole entry): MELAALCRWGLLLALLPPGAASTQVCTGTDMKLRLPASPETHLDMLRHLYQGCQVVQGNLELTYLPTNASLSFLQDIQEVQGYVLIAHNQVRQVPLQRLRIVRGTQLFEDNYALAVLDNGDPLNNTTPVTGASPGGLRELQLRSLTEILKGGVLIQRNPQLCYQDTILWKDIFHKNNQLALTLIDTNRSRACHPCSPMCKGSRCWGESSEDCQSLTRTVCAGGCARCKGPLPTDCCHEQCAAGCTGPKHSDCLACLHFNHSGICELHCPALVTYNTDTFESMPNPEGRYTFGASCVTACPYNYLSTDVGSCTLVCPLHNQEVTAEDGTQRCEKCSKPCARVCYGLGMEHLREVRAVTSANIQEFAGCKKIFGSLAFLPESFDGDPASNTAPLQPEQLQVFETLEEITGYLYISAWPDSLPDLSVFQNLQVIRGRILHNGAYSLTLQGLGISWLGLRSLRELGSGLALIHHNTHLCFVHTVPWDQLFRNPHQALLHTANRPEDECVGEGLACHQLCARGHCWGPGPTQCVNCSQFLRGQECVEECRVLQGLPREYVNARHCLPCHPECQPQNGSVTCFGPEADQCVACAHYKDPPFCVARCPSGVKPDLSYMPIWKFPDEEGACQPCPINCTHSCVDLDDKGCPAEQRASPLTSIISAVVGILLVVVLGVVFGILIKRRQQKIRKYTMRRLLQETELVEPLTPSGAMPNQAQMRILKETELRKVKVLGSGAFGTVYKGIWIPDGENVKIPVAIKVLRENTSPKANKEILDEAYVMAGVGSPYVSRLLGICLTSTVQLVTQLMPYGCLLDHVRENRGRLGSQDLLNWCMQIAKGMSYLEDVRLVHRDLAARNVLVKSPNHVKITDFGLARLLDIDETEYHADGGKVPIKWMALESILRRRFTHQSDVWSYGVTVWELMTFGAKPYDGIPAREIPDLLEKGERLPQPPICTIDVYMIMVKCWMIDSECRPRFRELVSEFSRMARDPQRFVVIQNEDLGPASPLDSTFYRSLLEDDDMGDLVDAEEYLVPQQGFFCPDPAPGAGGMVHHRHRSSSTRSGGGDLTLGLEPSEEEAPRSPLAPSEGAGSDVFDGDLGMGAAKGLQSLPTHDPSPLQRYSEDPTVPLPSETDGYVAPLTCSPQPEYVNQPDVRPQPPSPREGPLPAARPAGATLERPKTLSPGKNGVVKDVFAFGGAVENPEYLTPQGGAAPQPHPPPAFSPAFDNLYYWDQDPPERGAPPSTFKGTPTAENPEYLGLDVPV
Another series concerns Dengue virus. The experiment in a line: microbe, parasite or virus in culture.
In a further series the test system is Huh7.5.1. The experiment in a line: Cytotoxicity against human Huh-7.5.1 cells at 0.9 uM. The series is classed as toxicity, cell-based. As to conditions: huh7.5.1, 0.9 µM.
The subject of series [2] is Human immunodeficiency virus 1. Kind of series: Antiviral activity against HIV-1 assessed as inhibition of Nef mediated replication. The format is functional, organism-based.
The nature of series [3]: Cytotoxicity against human CEM-T4 cells. The format is toxicity, cell-based.
Series [4] deals with Influenza A virus. The experiment in a line: microbe, parasite or virus in culture. The note with it: MB1 H5N1.
In series [5] the test system is Influenza A virus. The experiment in a line: microbe, parasite or virus in culture. As to conditions: FPV H7N7.
The subject of series [6] is Influenza A virus. Kind of series: microbe, parasite or virus in culture. As to conditions: Lung, 24 h.
The test system of series [7] is Influenza A virus. Kind of series: microbe, parasite or virus in culture. As to conditions: H1N1v, A549.
Series [8] deals with Influenza A virus. The experiment in a line: microbe, parasite or virus in culture. The note with it: A/FPV/Bratislava/79 (H7N7), MDCK-II.
The test system of series [9] is Influenza A virus. The experiment in a line: microbe, parasite or virus in culture. As to conditions: H7N7.
Series [10] has as its system Influenza A virus. Kind of series: microbe, parasite or virus in culture. The note with it: RB1 H1N1.
Series [11] can be described thus: in vitro. The note with it: dog.
Series [12] relates to Influenza A virus. Kind of series: microbe, parasite or virus in culture. As to conditions: GSB H5N1.
Another series has as its target Focal adhesion kinase 1 (Homo sapiens, UniProt Q05397). The experiment in a line: Inhibition of FAK (unknown origin).
Series [13] in a line: Cytotoxicity against human NCI-H1650 cells. The format is toxicity, cell-based.
Series [14] in a line: Cytotoxicity against human A549 cells. The series is classed as toxicity, cell-based.
Series [15] can be described thus: Cytotoxicity against human NCI-H358 cells. The series is classed as toxicity, cell-based.
Series [16] in a line: Cytotoxicity against MDDC cells (unknown origin). The series is classed as toxicity, cell-based.
The test system of the next series is Human betaherpesvirus 5. Kind of series: microbe, parasite or virus in culture. The format is functional, organism-based.
The target in series [17] is T1, Cyclin-dependent kinase 7 (Homo sapiens, UniProt P50613).
T1 sequence (P50613 whole entry): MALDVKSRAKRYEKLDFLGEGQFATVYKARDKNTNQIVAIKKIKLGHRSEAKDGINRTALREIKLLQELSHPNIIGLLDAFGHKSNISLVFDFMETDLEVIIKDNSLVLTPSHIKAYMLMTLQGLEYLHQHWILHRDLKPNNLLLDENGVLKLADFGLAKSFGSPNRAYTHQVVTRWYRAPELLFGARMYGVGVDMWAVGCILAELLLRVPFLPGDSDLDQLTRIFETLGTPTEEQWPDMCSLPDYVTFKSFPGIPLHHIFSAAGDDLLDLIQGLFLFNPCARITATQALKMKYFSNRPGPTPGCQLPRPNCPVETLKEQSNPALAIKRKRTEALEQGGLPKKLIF
A short description of series [18]: in vitro. As to conditions: human, hff.
For series [19], the target named is T1, Cyclin-dependent kinase 7. The source holds these as a separate data set.
Series [20] has as its system dengue virus type 2. Kind of series: microbe, parasite or virus in culture. The format is functional, organism-based.
Series [21] in a line: Cytotoxicity against microglia (unknown origin) cells. The series is classed as toxicity, cell-based.
Series [22] deals with dengue virus type 2. The experiment in a line: Antiviral activity against DENV2 infected in hamster BHK-21 cells. The series is classed as functional.
Series [23] addresses Tyrosine-protein kinase JAK2 (Homo sapiens, UniProt O60674). As to conditions: dose 50.0 nM.
In series [24] the test system is Influenza A virus. The experiment in a line: microbe, parasite or virus in culture. The format is functional, organism-based. As to conditions: H3N2.
Series [25] deals with Influenza A virus. The experiment in a line: Antiviral activity against influenza A virus (A/WSN/1933) strain. The series is classed as functional, organism-based.
Series [26] deals with Influenza A virus. Kind of series: microbe, parasite or virus in culture. The series is classed as functional, organism-based. The note with it: H7N9.
Series [27] deals with Influenza A virus. The experiment in a line: microbe, parasite or virus in culture. The note with it: A/Anhui/1/2013 (H7N9). The format is functional, organism-based.
For series [28], the system named is Influenza A virus. The experiment in a line: microbe, parasite or virus in culture. The format is functional, organism-based. The note with it: H5N1.
Series [29] deals with Influenza A virus. The experiment in a line: microbe, parasite or virus in culture. The format is functional, organism-based. The note with it: A/ck/Yamaguchi/7/2004 (H5N10).
Series [30] concerns Zika virus. Kind of series: microbe, parasite or virus in culture.
A short description of series [31]: Cytotoxicity against human HCT-116 cells. The series is classed as toxicity, cell-based.
Series [32] relates to Zika virus. The experiment in a line: Antiviral activity against ZIKV MR766 infected in 1 hr pretreated rhesus monkey LLC-MK2 cells measured after 24 to 72 hrs. The format is functional, organism-based.

Focal adhesion kinase 1, sequence (Q05397 whole entry): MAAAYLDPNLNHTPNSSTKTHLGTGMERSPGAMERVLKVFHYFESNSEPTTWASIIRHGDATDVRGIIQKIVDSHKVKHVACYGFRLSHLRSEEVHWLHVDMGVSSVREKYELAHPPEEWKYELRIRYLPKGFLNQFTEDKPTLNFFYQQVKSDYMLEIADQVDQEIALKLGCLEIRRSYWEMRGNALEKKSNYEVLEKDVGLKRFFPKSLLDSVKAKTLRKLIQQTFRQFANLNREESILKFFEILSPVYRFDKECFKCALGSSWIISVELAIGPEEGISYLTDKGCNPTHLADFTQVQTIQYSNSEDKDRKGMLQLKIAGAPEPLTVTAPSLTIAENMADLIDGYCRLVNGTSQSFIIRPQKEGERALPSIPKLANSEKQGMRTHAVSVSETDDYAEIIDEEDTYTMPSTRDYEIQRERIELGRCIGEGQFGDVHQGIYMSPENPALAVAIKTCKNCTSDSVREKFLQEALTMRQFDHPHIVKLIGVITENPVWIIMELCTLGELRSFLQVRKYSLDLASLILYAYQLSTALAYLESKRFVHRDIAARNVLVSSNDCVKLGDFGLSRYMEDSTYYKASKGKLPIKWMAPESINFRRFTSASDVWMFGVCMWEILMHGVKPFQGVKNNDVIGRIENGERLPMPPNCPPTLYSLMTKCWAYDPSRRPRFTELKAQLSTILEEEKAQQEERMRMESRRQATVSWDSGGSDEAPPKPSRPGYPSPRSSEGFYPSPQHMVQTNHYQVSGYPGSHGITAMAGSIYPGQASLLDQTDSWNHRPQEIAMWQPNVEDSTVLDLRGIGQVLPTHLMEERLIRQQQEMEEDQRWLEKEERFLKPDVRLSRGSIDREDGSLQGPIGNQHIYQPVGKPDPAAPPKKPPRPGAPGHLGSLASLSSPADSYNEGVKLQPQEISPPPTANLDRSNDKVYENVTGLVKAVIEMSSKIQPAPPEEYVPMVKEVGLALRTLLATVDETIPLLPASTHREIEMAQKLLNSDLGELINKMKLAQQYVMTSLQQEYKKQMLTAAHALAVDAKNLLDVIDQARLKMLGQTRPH
Tyrosine-protein kinase JAK2, sequence (O60674 whole entry): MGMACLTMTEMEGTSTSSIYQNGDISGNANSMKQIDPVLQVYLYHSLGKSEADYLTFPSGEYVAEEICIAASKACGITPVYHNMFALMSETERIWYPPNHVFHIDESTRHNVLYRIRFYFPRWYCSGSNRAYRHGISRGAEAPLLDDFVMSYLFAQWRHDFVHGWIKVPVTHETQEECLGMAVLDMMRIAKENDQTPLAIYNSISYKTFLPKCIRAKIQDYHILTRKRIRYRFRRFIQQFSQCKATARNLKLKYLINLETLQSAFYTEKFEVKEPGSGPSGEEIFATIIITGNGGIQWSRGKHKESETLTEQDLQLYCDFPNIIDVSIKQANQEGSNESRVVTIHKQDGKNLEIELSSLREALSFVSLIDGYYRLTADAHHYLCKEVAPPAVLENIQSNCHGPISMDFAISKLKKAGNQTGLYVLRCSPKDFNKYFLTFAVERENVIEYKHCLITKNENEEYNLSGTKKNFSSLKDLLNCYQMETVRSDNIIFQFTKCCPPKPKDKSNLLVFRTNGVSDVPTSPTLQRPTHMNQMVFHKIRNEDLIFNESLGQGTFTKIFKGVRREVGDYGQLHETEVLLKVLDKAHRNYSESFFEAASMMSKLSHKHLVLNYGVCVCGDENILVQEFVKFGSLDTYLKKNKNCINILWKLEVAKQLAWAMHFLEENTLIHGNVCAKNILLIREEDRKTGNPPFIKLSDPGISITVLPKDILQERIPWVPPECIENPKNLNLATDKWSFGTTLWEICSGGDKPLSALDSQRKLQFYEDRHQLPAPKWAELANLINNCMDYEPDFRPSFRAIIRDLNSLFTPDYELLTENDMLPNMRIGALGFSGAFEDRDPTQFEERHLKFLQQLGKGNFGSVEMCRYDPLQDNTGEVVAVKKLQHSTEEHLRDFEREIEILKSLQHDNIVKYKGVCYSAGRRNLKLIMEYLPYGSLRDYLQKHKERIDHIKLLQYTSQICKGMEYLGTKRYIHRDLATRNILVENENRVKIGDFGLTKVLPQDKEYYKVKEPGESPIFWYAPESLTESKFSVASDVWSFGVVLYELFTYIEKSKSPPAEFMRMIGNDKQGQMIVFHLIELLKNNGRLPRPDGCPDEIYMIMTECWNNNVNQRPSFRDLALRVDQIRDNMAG

Regarding `CCN(CC)CC1CCN(c2ncc3ncnc(Nc4ccc(F)c(Cl)c4)c3n2)CC1`, the values for the 50% inhibitory concentration (IC50) (in series [1]; in the series on Dengue virus) were 290 nM and 900 nM, respectively. In the series with Huh7.5.1, the Activity result was “Non-Toxic”.

Consider `NC(=S)n1nc(-c2ccc([N+](=O)[O-])cc2)c(/N=N/c2cccc(Cl)c2)c1O`, for which the IC50 in [2] is 300 nM. Moreover, in series [3], the CC50 is more than 10000 nM.

For `N#CC(=C(/N)Sc1ccccc1N)/C(C#N)=C(\N)Sc1ccccc1N`, the half-maximal effective concentration (EC50) in the series with Influenza A virus [4] was found to be 4430 nM; with Influenza A virus [5], 82700 nM; in the series on Influenza A virus [6], 620000 nM; with Influenza A virus [7] it was 1200 nM; in the series on Influenza A virus [8], 74700 nM; with Influenza A virus [9] it was 620000 nM. The EC50 in the series with Influenza A virus [10] is 1210 nM; in the series with Influenza A virus [12] it was 36600 nM. In the series with Dengue virus, this compound registered an IC50 of 14200 nM. For the same compound, the CC50 in the series “in vitro [11]” (mdck) is more than 50000 nM.

In turn, `Nc1cc(N)c(N)cc1N` showed an IC50 at Focal adhesion kinase 1 of 1000 nM. Further, the CC50 in [13], in series [14] and in series [15] was more than 1000 nM throughout.

`COc1cc(-c2cnc3c(N4C[C@@H](C)O[C@@H](C)C4)snc3c2)ccc1N` had an EC50 in the series on Dengue virus of 3500 nM. Moreover, the CC50 in [16] is more than 20000 nM.

Turning to `CC(C)c1cnn2c(NCc3ccccc3-n3cccn3)nc(OC3CCCNC3)nc12` (stereo not given), a half-maximal response in the series with Human betaherpesvirus 5 (EC50) required 24 nM. The IC50 in [17] and in [19] was less than 5 nM in each case. The CC50 in the series “in vitro [18]” turned out to be 6200 nM.

`NC(=O)c1cccc(-c2cc(Nc3ccc(OC(F)(F)F)cc3)ncn2)c1`: the IC50 in the series with dengue virus type 2 [20] is 15000 nM. Further, the CC50 in series [21] amounted to 20000 nM. Further, it took 15000 nM to reach the 90% level in the series on dengue virus type 2 [22] (IC90).

`CC1=C(C)C2NC(=O)C(CN3C(=S)N([C@@H](C)c4ccccc4)C(=O)C3C3CC3)C=C2C=C1` (stereo not given in full) showed an inhibition in series [23] of 61%. The EC50 in the series on Influenza A virus [24] is 20 nM; in the series on Influenza A virus [26], 20000 nM; in the series with Influenza A virus [28], 20000 nM. The values for the 50% inhibitory concentration (IC50) with Influenza A virus [25], in the series on Influenza A virus [27] and in the series on Influenza A virus [29] were 12 nM, 20 nM and 20 nM, respectively. The compound also had a CC50 in “in vitro [11]” (MDCK cells) of 3800 nM.

In the case of `CC(C)c1[nH]n(-c2c(Cl)cccc2Cl)c2nc(Cc3ccc(OCCO)cc3)nc(=O)c1-2`, the IC50 turned out to be 90 nM in the series with Zika virus [30], 71 nM in [19] and 27 nM with Zika virus [32]. Moreover, the CC50 in [31] was found to be 40 nM.
